Measurements taken from patent publication US8637510B2, “Morpholinothiazoles as alpha 7 positive allosteric modulators” (Janssen Pharmaceutica NV, priority 2009, dated 2014).
Where a name gives a salt, the structure may show the parent alone.

Target: T1, human alpha 7-wt nAChR (Homo sapiens, UniProt P36544)
T1 construct: expressed in transfected cells
Assay: Ca2+ flux imaging (FDSS) (Protocol B)
Assay type: cell-based
Settings: for Emax: efficacy of 100 μM choline defined as 100% in the absence of a PAM, read-out: a7-PAM-G_[33]_Eff_Curve_FI % Efficacy; for EC50: potentiation of 100 μM choline, compounds 0.01 μM to 30 μM, read-out: a7-PAM-G_[33]_pEC50 pEC50 (converted)
Procedure: Ca^2+ Flux Imaging (FDSS) (Protocol B)
• Hanks buffered saline solution (HBSS, Invitrogen, Belgium), supplemented with 10 mM HEPES (Invitrogen, Belgium), CaCl2 to a final concentration of 5 mM, 0.1% Bovine serum albumin (Sigma-Aldrich NV, Belgium). b) Calcium-Sensitive Dye—Fluo-4AM • Fluo-4AM (Molecular Probes, USA) was dissolved in DMSO containing 10% Pluronic acid (Molecular Probes, USA) to give a stock solution which was diluted in assay buffer supplemented with 5 mM probenicid (Sigma, Aldrich NV, Belgium) to give a final concentration of 2 μM. c) 384-Well Plates • Black-sided, transparent bottomed 384 well plates coated with poly-D-lysine, PDL pre-coated (Corning, Incorporated, USA) d) Calcium Flux Measurement • A Functional drug screening system (FDSS, Hamamatsu) was used to measure intracellular free-calcium flux signals. Method
Monolayers of human alpha 7-wt nAChR-expressing cells were grown in black-sided, transparent bottomed 384 well plates coated with PDL for 24 hours prior to loading with a fluorescent calcium indicator, fluo-4AM for up to 120 minutes.
PAM activity was detected in real time by applying the compounds to be tested to the loaded cells along with an alpha 7 nicotinic receptor agonist during constant monitoring of cellular fluorescence in a FDSS. Compounds giving peak fluorescent responses greater than the response due to agonist alone, were considered to be alpha 7 nAChR PAMs. The alpha 7 nicotinic receptor agonist was choline, applied at a sub-maximal concentration of 100 μM. In a further setting of the present invention the compounds were applied prior to the alpha 7 nicotinic receptor agonist, in a particular 10 minutes prior to the agonist.
A control response to choline was calculated on each plate from the difference in peak in fluorescence in wells receiving either choline or assay buffer alone. Compounds of the present invention were tested at a concentration range from 0.01 μM to 30 μM. Compounds were considered to have an interesting activity when they potentiated the choline signal at least with 200% when tested at a concentration of 30 μM (the efficacy of 100 μM choline was defined as 100% in the absence of a PAM). An EC50 (or pEC50) was determined as a concentration relating to half the maximal effect, when a clear sigmoidal curve with top plateau was obtained.

T1 sequence (P36544 23-502): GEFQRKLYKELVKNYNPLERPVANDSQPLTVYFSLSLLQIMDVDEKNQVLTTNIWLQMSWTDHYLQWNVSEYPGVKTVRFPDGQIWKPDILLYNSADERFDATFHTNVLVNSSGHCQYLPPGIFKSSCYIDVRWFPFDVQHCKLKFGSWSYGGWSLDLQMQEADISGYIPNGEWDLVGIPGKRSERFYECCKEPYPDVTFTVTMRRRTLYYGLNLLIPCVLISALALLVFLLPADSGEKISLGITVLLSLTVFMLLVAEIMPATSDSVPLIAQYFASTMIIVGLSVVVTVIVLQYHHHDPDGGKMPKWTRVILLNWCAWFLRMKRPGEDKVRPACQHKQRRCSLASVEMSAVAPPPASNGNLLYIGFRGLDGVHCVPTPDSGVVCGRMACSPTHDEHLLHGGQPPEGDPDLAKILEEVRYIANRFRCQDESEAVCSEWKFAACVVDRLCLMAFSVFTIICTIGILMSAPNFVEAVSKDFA

Compound	Emax [%]	EC50 [nM]
Cc1cc(-c2sc(N3C[C@@H](C)O[C@@H](C)C3)nc2CNC(=O)c2ccoc2)cc(C)n1 [Compound 141, N-[[2-[(2R,6S)-2,6-dimethyl-4-morpholinyl]-5-(2,6-dimethyl-4-pyridinyl)-4-thiazolyl]methyl]-3-furancarboxamide]	764	692
Cc1cc(-c2sc(N3C[C@@H](C)O[C@@H](C)C3)nc2CNC(=O)c2ccn(C)n2)cc(C)n1 [Compound 142, N-[[2-[(2R,6S)-2,6-dimethyl-4-morpholinyl]-5-(2,6-dimethyl-4-pyridinyl)-4-thiazolyl]methyl]-1-methyl-1H-pyrazole-3-carboxamide]	669	–
Cc1cc(-c2sc(N3C[C@@H](C)O[C@@H](C)C3)nc2CNC(=O)c2cc(C(C)(C)C)on2)cc(C)n1 [Compound 143, 5-(1,1-dimethylethyl)-N-[[2-[(2R,6S)-2,6-dimethyl-4-morpholinyl]-5-(2,6-dimethyl-4-pyridinyl)-4-thiazolyl]methyl]-3-isoxazolecarboxamide]	–	891
Cc1cc(-c2sc(N3C[C@@H](C)O[C@@H](C)C3)nc2CNC(=O)CCCC(F)(F)F)cc(C)n1 [Compound 145, N-[[2-[(2R,6S)-2,6-dimethyl-4-morpholinyl]-5-(2,6-dimethyl-4-pyridinyl)-4-thiazolyl]methyl]-5,5,5-trifluoro-pentanamide]	–	148
Cc1cc(-c2sc(N3C[C@@H](C)O[C@@H](C)C3)nc2CNC(=O)c2ccoc2C)cc(C)n1 [Compound 151, N-[[2-[(2R,6S)-2,6-dimethyl-4-morpholinyl]-5-(2,6-dimethyl-4-pyridinyl)-4-thiazolyl]methyl]-2-methyl-3-furancarboxamide]	–	871
Cc1cc(-c2sc(N3C[C@@H](C)O[C@@H](C)C3)nc2CNC(=O)c2ocnc2C)cc(C)n1 [Compound 152, N-[[2-[(2R,6S)-2,6-dimethyl-4-morpholinyl]-5-(2,6-dimethyl-4-pyridinyl)-4-thiazolyl]methyl]-4-methyl-5-oxazolecarboxamide]	–	6920
Cc1cc(-c2sc(N3C[C@@H](C)O[C@@H](C)C3)nc2CNC(=O)c2scnc2C)cc(C)n1 [Compound 153, N-[[2-[(2R,6S)-2,6-dimethyl-4-morpholinyl]-5-(2,6-dimethyl-4-pyridinyl)-4-thiazolyl]methyl]-4-methyl-5-thiazolecarboxamide]	–	2750
Cc1cc(-c2sc(N3C[C@@H](C)O[C@@H](C)C3)nc2CNC(=O)c2snnc2C)cc(C)n1 [Compound 155, N-[[2-[(2R,6S)-2,6-dimethyl-4-morpholinyl]-5-(2,6-dimethyl-4-pyridinyl)-4-thiazolyl]methyl]-4-methyl-1,2,3-thiadiazole-5-carboxamide]	–	75.9
COc1nc(C)c(C(=O)NCc2nc(N3C[C@@H](C)O[C@@H](C)C3)sc2-c2cc(C)nc(C)c2)s1 [Compound 158, N-[[2-[(2R,6S)-2,6-dimethyl-4-morpholinyl]-5-(2,6-dimethyl-4-pyridinyl)-4-thiazolyl]methyl]-2-methoxy-4-methyl-5-thiazolecarboxamide]	951	1580
Cc1cc(-c2sc(N3C[C@@H](C)O[C@@H](C)C3)nc2CNC(=O)c2cc(C)sc2C)cc(C)n1 [Compound 162, N-[[2-[(2R,6S)-2,6-dimethyl-4-morpholinyl]-5-(2,6-dimethyl-4-pyridinyl)-4-thiazolyl]methyl]-2,5-dimethyl-3-thiophenecarboxamide]	842	813
Cc1cc(-c2sc(N3C[C@@H](C)O[C@@H](C)C3)nc2CNC(=O)c2ccc(C(F)(F)F)nc2C)cc(C)n1 [Compound 165, N-[[2-[(2R,6S)-2,6-dimethyl-4-morpholinyl]-5-(2,6-dimethyl-4-pyridinyl)-4-thiazolyl]methyl]-2-methyl-6-(trifluoromethyl)-3-pyridinecarboxamide]	–	49
Cc1cc(CC(=O)NCc2nc(N3C[C@@H](C)O[C@@H](C)C3)sc2-c2cc(C)nc(C)c2)on1 [Compound 167, N-[[2-[(2R,6S)-2,6-dimethyl-4-morpholinyl]-5-(2,6-dimethyl-4-pyridinyl)-4-thiazolyl]methyl]-3-methyl-5-isoxazoleacetamide]	–	1230
Cc1cc(-c2sc(N3C[C@@H](C)O[C@@H](C)C3)nc2CNC(=O)c2cn(C)nc2C)cc(C)n1 [Compound 169, N-[[2-[(2R,6S)-2,6-dimethyl-4-morpholinyl]-5-(2,6-dimethyl-4-pyridinyl)-4-thiazolyl]methyl]-1,3-dimethyl-1H-pyrazole-4-carboxamide]	671	–
Cc1cc(-c2sc(N3C[C@@H](C)O[C@@H](C)C3)nc2CNC(=O)CC#N)cc(C)n1 [Compound 170, 2-cyano-N-[[2-[(2R,6S)-2,6-dimethyl-4-morpholinyl]-5-(2,6-dimethyl-4-pyridinyl)-4-thiazolyl]methyl]-acetamide]	499	3090
Cc1cc(-c2sc(N3C[C@@H](C)O[C@@H](C)C3)nc2CNC(=O)c2oc(C)cc2C)cc(C)n1 [Compound 173, N-[[2-[(2R,6S)-2,6-dimethyl-4-morpholinyl]-5-(2,6-dimethyl-4-pyridinyl)-4-thiazolyl]methyl]-3,5-dimethyl-2-furancarboxamide]	425	776
Cc1cc(-c2sc(N3C[C@@H](C)O[C@@H](C)C3)nc2CNC(=O)C2(O)CC2)cc(C)n1 [Compound 176, N-[[2-[(2R,6S)-2,6-dimethyl-4-morpholinyl]-5-(2,6-dimethyl-4-pyridinyl)-4-thiazolyl]methyl]-1-hydroxy-cyclopropanecarboxamide]	149	–
Cc1cc(-c2sc(N3C[C@@H](C)O[C@@H](C)C3)nc2CNC(=O)C(F)(F)F)cc(C)n1 [Compound 177, N-[[2-[(2R,6S)-2,6-dimethyl-4-morpholinyl]-5-(2,6-dimethyl-4-pyridinyl)-4-thiazolyl]methyl]-2,2,2-trifluoro-acetamide]	26	–
Cc1cc(-c2sc(N3CCOC(C)(C)C3)nc2CNC(=O)c2cc(C)on2)cc(C)n1 [Compound 181, N-[[2-(2,2-dimethyl-4-morpholinyl)-5-(2,6-dimethyl-4-pyridinyl)-4-thiazolyl]methyl]-5-methyl-3-isoxazolecarboxamide]	991	1910
Cc1cc(-c2sc(N3CCOC(C)(C)C3)nc2CNC(=O)c2conc2C)cc(C)n1 [Compound 182, N-[[2-(2,2-dimethyl-4-morpholinyl)-5-(2,6-dimethyl-4-pyridinyl)-4-thiazolyl]methyl]-3-methyl-4-isoxazolecarboxamide•HCl]	702	1450
Cc1cc(-c2sc(N3CCOC(C)(C)C3)nc2CNC(=O)C(C)C)cc(C)n1 [Compound 183, N-[[2-(2,2-dimethyl-4-morpholinyl)-5-(2,6-dimethyl-4-pyridinyl)-4-thiazolyl]methyl]-2-methyl-propanamide]	–	2750
Cc1cc(-c2sc(N3CCOC[C@@H]3C)nc2CNC(=O)c2conc2C)cc(C)n1 [Compound 185, N-[[5-(2,6-dimethyl-4-pyridinyl)-2-[(3S)-3-methyl-4-morpholinyl]-4-thiazolyl]methyl]-3-methyl-4-isoxazolecarboxamide]	835	4790
Cc1cc(-c2sc(N3CCOC[C@@H]3C)nc2CNC(=O)c2cc(C)on2)cc(C)n1 [Compound 186, N-[[5-(2,6-dimethyl-4-pyridinyl)-2-[(3S)-3-methyl-4-morpholinyl]-4-thiazolyl]methyl]-5-methyl-3-isoxazolecarboxamide]	945	3800
